Experimental data: patent US6242601A, “Heterocyclic sulfamides” (Hoffman-La Roche Inc., priority 1999, dated 2001)

Tests used:
[1] = molecular target: T1, recombinant human ETA receptors (Homo sapiens, UniProt P25101); experiment: Inhibition of endothelin binding to recombinant human ETA receptors expressed in baculovirus-infected insect cells (125I-endothelin); settings: 125I-endothelin 20 pM; baculovirus-infected insect cell membranes; 20° C. for 2 hours or 4° C. for 24 hours
T1 sequence (P25101 21-427): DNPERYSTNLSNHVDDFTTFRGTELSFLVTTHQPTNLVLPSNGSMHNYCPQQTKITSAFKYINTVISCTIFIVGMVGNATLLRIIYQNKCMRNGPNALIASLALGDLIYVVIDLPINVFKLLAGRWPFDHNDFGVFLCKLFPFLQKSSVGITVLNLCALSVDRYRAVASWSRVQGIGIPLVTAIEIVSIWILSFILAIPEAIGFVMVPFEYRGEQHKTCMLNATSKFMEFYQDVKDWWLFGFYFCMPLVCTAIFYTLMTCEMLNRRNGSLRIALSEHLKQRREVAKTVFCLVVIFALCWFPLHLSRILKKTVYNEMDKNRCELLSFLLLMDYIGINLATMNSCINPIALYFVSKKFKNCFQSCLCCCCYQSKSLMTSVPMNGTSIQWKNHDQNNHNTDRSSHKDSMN
Protocol: I. […] A cDNA coding for human ETA receptors of human placenta was cloned ([…]. Yang, Y. Furuichi and C. Miyamoto, BBRC 180, 1265-1272) and expressed in the Baculovirus-insect cell system. Baculovirus-infected insect cells from a 23 1 fermenter are centrifuged off (3000×g, 15 minutes, 4° C.) 60 hours after the infection, re-suspended in Tris buffer (5 mM, pH 7.4, 1 mM MgCl2) and again centrifuged. After a further re-suspension and centrifugation the cells are suspended in 800 ml of the same buffer and […] at -120° C. The cells disintegrate when the suspension in this hypotonic buffer mixture is thawed. After a repeated […]/thawing cycle the suspension is homogenised and centrifuged (25000×g, 15 minutes, 4° C.). After suspension in Tris buffer (75 mM, pH 7.4, 25 mM MgCl2, 250 mM sucrose) 1 ml aliquots (protein content about 3.5 mg/ml) are stored at -85° C. […] The incubation is carried out at 20° C. for 2 hours or at 4° C. for 24 hours. The separation of free and membrane-bound radio-ligands is carried out by filtration over a glass fibre filter.

[2] = molecular target: T1, recombinant human ETA receptors; experiment: Inhibition of endothelin binding on recombinant human ETA receptors expressed in CHO cells ([125I]ET-1, whole attached cells); set-up: expressed in transfected cells; host or cells: CHO cells; settings: 35 pM [125I]ET-1, 2 h, 22° C.
Protocol: II. […] Cell culture. CHO cells, expressing recombinant human ETA receptor are grown in Minimal Essential Alpha Medium (Gibco Laboratories, Paisley, Scotland) supplemented with 0.1 μM methotrexate, 5% dialyzed fetal calf serum, 100 U/ml of penicillin and 100 μg/ml of streptomycin. Binding assays with whole attached cells are performed in 500 μl Dulbecco's Eagle medium (DMEM) containing 2 mg/ml bovine serum albumin and 25 mM Hepes. After incubation (2 h, 22° C.) in the presence of 35 pM [^125 I]ET-1 and increasing concentrations of various antagonists, the cells are extensively washed and finally solubilized in 1% (w/v) SDS, 0.5 M NaOH and 100 mM EDTA. Each assay is performed three times in triplicates and non specific binding is assessed in the presence of 100 nM unlabelled ET-1. Specific binding is defined as the difference between total binding and non specific binding. IC50 values are determined after logit/log transformation of the binding data.

isolated rat aorta rings = molecular target: T2, isolated rat aorta rings (Rattus norvegicus, UniProt P26684); experiment: Inhibition of endothelin-induced contractions in isolated rat aorta rings; set-up: species or system adult Wistar-Kyoto rats; settings: rat aorta rings without endothelium, 37° C.; endothelin-1 cumulative; from dose ratio; read-out: pA2 (converted)
T2 construct: Rings with a length of 5 mm were cut out from the thorax aorta of adult Wistar-Kyoto rats; from tissue; host or cells: thoracic aorta of adult Wistar-Kyoto rats, endothelium removed
T2 sequence (P26684 21-426): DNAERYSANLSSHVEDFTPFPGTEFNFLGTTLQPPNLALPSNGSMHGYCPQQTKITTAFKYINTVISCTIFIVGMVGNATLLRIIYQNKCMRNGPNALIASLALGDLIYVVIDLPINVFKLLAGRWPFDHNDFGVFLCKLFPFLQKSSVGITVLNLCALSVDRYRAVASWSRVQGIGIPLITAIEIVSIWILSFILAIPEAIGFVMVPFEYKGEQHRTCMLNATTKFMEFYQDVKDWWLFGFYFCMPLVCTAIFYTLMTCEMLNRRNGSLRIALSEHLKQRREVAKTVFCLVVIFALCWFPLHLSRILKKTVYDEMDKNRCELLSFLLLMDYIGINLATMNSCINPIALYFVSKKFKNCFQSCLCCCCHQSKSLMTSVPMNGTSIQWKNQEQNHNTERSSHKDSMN
Protocol: Rings with a length of 5 mm were cut out from the thorax aorta of adult Wistar-Kyoto rats. The endothelium was removed by lightly rubbing the internal surface. Each ring was immersed at 37° C. in 10 ml of Krebs-Henseleit solution in an isolated bath while gassing with 95% O2 and 5% CO2. The isometric stretching of the rings was measured. The rings were stretched to a pre-tension of 3 g.
The corresponding pA2 value, which is a measure of the activity of the test compound, was calculated using a computer programme according to the following equation from the "dose ratio" DR for each individual dosage-activity curve.
pA2 =log(DR-1)-log(antagonist-concentration)

[3] = Pharmacokinetics of the endothelin receptor antagonists after oral gavage in rats; assay type: in vivo; settings: rat, plasma, 5 mg/kg in DMSO, Wistar rats, bioassay; for AUC: read-out: Area under the plasma concentration time curve; for Cmax: read-out: Peak concentration in rat plasma
Protocol: IV. […] The test compounds were dissolved in DMSO at a concentration of 5 mg/mL and administered orally by gavage at a dose of 1 mL/kg body weight corresponding to 5 mg/kg body weight. Two rats were administered per test compound. Blood samples were collected from the retro-orbital sinus at 1 and 5 h post dose in one rat, and at 3 and 7 h post dose in the other rat. In addition a terminal 24 h blood sample was collected from both rats by heart puncture. Blood was collected on EDTA-NaF. Plasma was derived by centrifugation at 2000 g at +4° C. for 15 min. Plasma samples were assayed for active drug related material with a bioassay, based on the binding competition of tested compounds and ^125 I ET-1 on recombinant ETA receptors. Quantitation of plasma samples was by comparison to a calibration curve build up from control rat plasma spiked with known concentrations of the test compounds.

For COc1ccccc1Oc1c(NS(=O)(=O)c2ccc(C)cn2)nc(-c2ccnc(CO)c2)nc1OC [Example 29, 5-methyl-pyridine-2-sulfonic acid [2-(2-hydroxymethyl-pyridin-4-yl)-6-methoxy-5-(2-methoxy-phenoxy)-pyrimidin-4-yl]-amide], the IC50 [1] was ≤ 50 nM and the IC50 [2] was ≤ 10 nM.
For COc1ccccc1Oc1c(NS(=O)(=O)c2ccc(C)cn2)nc(-c2ccnc(CNC(C)=O)c2)nc1OC [Example 30, N-{4-[4-methoxy-5-(2-methoxy-phenoxy)-6-(5-methyl-pyridine-2-sulfonylamino)-pyrimidin-2-yl]-pyridin-2-ylmethyl}-acetamide], the IC50 [2] was ≤ 10 nM.
For COc1ccccc1Oc1c(NS(=O)(=O)c2ccc(C)cn2)nc(-c2ccnc(OCCO)c2)nc1OC [Example 36, 5-methyl-pyridine-2-sulfonic acid [2-[2-(2-hydroxy-ethoxy)-pyridin-4-yl]-6-methoxy-5-(2-methoxy-phenoxy)-pyrimidin-4-yl]-amide], the IC50 [2] was ≤ 10 nM.
For C=C(C)c1ccc(S(=O)(=O)Nc2nc(-c3cccc(O)c3)nc(OC)c2Oc2ccccc2OC)nc1 [Example 15, 5-isopropenyl-pyridine-2-sulfonic acid [2-(3-hydroxy-phenyl)-6-methoxy-5-(2-methoxy-phenoxy)-pyrimidin-4-yl]-amide], the IC50 [1] was ≤ 50 nM.
In the case of CNC(=O)c1cc(-c2nc(NS(=O)(=O)c3ccc(C(C)C)cn3)c(Oc3ccccc3OC)c(OC)n2)ccn1 [Example 48, 4-[4-(5-isopropyl-pyridine-2-sulfonylamino)-6-methoxy-5-(2-methoxy-phenoxy)-pyrimidin-2-yl]-pyridine-2-carboxylic acid methylamide], the IC50 [1] is reported as ≤ 50 nM.
In the case of COc1ccccc1Oc1c(NS(=O)(=O)c2ccc(C(C)C)cn2)nc(-c2ccnc(C(N)=O)c2)nc1OC [Example 42, 4-[4-(5-isopropyl-pyridine-2-sulfonylamino)-6-methoxy-5-(2-methoxy-phenoxy)-pyrimidin-2-yl]-pyridine-2-carboxylic acid amide], the Kb (isolated rat aorta rings) is reported as ≤ 6.31 nM, the AUC [3] is reported as ≥ 10000 ng·h/mL and the Cmax [3] is reported as ≥ 1500 ng/mL.
For COc1ccccc1Oc1c(NS(=O)(=O)c2ccc(C(C)C)cn2)nc(-c2ccnc(-c3noc(C)n3)c2)nc1OC [Example 56, 5-isopropyl-pyridine-2-sulfonic acid {6-methoxy-5-(2-methoxy-phenoxy)-2-[2-(5-methyl-[1,2,4]oxadiazol-3-yl)-pyridin-4-yl]-pyrimidin-4-yl}-amide], the IC50 [1] was ≤ 50 nM.
In the case of COc1ccccc1Oc1c(NS(=O)(=O)c2ccc(C)cn2)nc(-c2ccnc(C(=N)NO)c2)nc1OC [Example 34, N-hydroxy-4-[4-methoxy-5-(2-methoxy-phenoxy)-6-(5-methyl-pyridine-2-sulfonylamino)-pyrimidin-2-yl]-pyridine-2-carboxamidine], the IC50 [1] is reported as ≤ 50 nM.
In the case of CCS(=O)(=O)NCc1cc(-c2nc(NS(=O)(=O)c3ccc(C)cn3)c(Oc3ccccc3OC)c(OC)n2)ccn1 [Example 32, 5-methyl-pyridine-2-sulfonic acid [2-[2-(ethanesulfonylamino-methyl)-pyridin-4-yl]-6-methoxy-5-(2-methoxy-phenoxy)-pyrimidin-4-yl]-amide], the IC50 [1] is reported as ≤ 50 nM.
For COc1ccccc1Oc1c(NS(=O)(=O)c2ccc(C(C)C)cn2)nc(-c2ccnc(CO)c2)nc1OC [Example 44, 5-isopropyl-pyridine-2-sulfonic acid [2-(2-hydroxymethyl-pyridin-4-yl)-6-methoxy-5-(2-methoxy-phenoxy)-pyrimidin-4-yl]-amide], the Kb (isolated rat aorta rings) was ≤ 6.31 nM.
In the case of COc1ccccc1Oc1c(NS(=O)(=O)c2ccc(C(C)C)cn2)nc(-c2ccnc(C(=O)N(C)C)c2)nc1OC [Example 51, 4-[4-(5-isopropyl-pyridine-2-sulfonylamino)-6-methoxy-5-(2-methoxy-phenoxy)-pyrimidin-2-yl]-pyridine-2-carboxylic acid dimethylamide], the IC50 [1] is reported as ≤ 50 nM.
For COC(=O)COc1cccc(-c2nc(NS(=O)(=O)c3ccc(C)cn3)c(Oc3ccccc3OC)c(OC)n2)c1 [Example 2, {3-[4-methoxy-5-(2-methoxy-phenoxy)-6-(5-methyl-pyridine-2-sulfonylamino)-pyrimidin-2-yl]-phenoxy}-acetic acid methyl ester], the IC50 [2] was ≤ 10 nM.
For CCOc1cc(-c2nc(NS(=O)(=O)c3ccc(C)cn3)c(Oc3ccccc3OC)c(OC)n2)ccn1 [Example 38, 5-methyl-pyridine-2-sulfonic acid [2-(2-ethoxy-pyridin-4-yl)-6-methoxy-5-(2-methoxy-phenoxy)-pyrimidin-4-yl]-amide], the IC50 [1] was ≤ 50 nM.
With COC(=O)c1cc(-c2nc(NS(=O)(=O)c3ccc(C)cn3)c(Oc3ccccc3OC)c(OC)n2)ccn1 [Example 22, 4-[4-methoxy-5-(2-methoxy-phenoxy)-6-(5-methyl-pyridine-2-sulfonylamino)-pyrimidin-2-yl]-pyridine-2-carboxylic acid methyl ester] the IC50 [1] was ≤ 50 nM, the AUC [3] was ≥ 10000 ng·h/mL and the Cmax [3] was ≥ 1500 ng/mL.
For COc1ccccc1Oc1c(NS(=O)(=O)c2ccc(C(C)C)cn2)nc(-c2ccnc(OCCO)c2)nc1OC [Example 57, 5-isopropyl-pyridine-2-sulfonic acid [2-[2-(2-hydroxy-ethoxy)-pyridin-4-yl]-6-methoxy-5-(2-methoxy-phenoxy)-pyrimidin-4-yl]-amide], the Kb (isolated rat aorta rings) was ≤ 6.31 nM.
For COc1ccccc1Oc1c(NS(=O)(=O)c2ccc(C)cn2)nc(-c2ccnc(C(=O)OCCO)c2)nc1OC [Example 25, 4-[4-methoxy-5-(2-methoxy-phenoxy)-6-(5-methyl-pyridine-2-sulfonylamino)-pyrimidin-2-yl]-pyridine-2-carboxylic acid 2-hydroxy-ethyl ester], the IC50 [1] was ≤ 50 nM.
For COc1ccccc1Oc1c(NS(=O)(=O)c2ccc(C)cn2)nc(-c2ccnc(C#N)c2)nc1OC [Example 19, 5-methyl-pyridine-2-sulfonic acid [2-(2-cyano-pyridin-4-yl)-6-methoxy-5-(2-methoxy-phenoxy)-pyrimidin-4-yl]-amide], the AUC [3] was ≥ 10000 ng·h/mL, the Cmax [3] was ≥ 1500 ng/mL and the IC50 [2] was ≤ 10 nM.
